The values below come from patent US8410078B2, “Composition and methods to treat cardiac diseases” (University of Connecticut, priority 2006, dated 2013).

The subject of one data set is P2X4R Tg myocytes. In words: Cyclic AMP enzymatic immunoassay in P2X4R Tg myocytes. The format is cell-based, mouse. Particulars: 10 minutes, 2-meSATP at 10 μM. The method, then:
Cyclic AMP was determined with an enzymatic immuno-assay kit (EIA, Direct Biotrak EIA kit) according to manufacturer's instructions. The method has been used to estimate cAMP level in dispersed mammalian cardiac ventricular myocytes. In brief, 3-month P2X4R Tg myocytes were isolated and plated in laminin-coated 96 well plate at a density of 1000 cells/well, equilibrated for 1 hour at 37° C., incubated with either phosphate-buffered saline (pH=7.4) or 10 μM 2-meSATP for 10 minutes, and processed for acetylation and subsequent cAMP EIA. cAMP levels were normalized to proteins in each individual well.

In the next data set the test system is cardiac P2X receptor. In words: Whole-cell voltage clamp of P2 agonist-induced current in WT ventricular myocytes. The class given is cell-based, mouse. Particulars: for Inhibition of the 2-meSATP-induced current by P2X receptor antagonists: PPADS 100 μM, NF449 300 nM, Brilliant Blue G 5 μM, ramp −100 to +50 mV. The source says: Mice displaying the CSQ model of severe cardiomyopathy and heart failure were bred and maintained by methods known in the art. The CSQ transgenic (TG) mice were originally provided by Dr. Larry Jones (Krannert Institute of Cardiology, Indiana University School of Medicine, Indiana), and developed hypertrophy followed by a lethal heart failure phenotype with death near the age of 3 months. Ventricular myocytes were obtained from 3-month old wild type (WT) and CSQ mice of either sex (26 WT, 47 TG) by an enzymatic dissociation procedure. Briefly, the hearts were rapidly excised from mice that had been anesthetized with pentobarbital and treated with 1000 Units of heparin. The aorta was cannulated and the heart perfused in a Langendorff apparatus with oxygenated (95% O2/5% CO2) Ca^2+-free solution (37° C.) for 5 minutes at a rate of 2.5 ml/min. The solution composition was: 126 mM NaCl, 4.4 mM KCl, 1.0 mM MgCl2, 18 mM NaHCO3, 11 mM Glucose, 4 mM HEPES, and 3 mM BDM (2,3-butanedione monoxime), (pH 7.3 adjusted with NaOH). Thereafter, the perfusing solution was changed to that containing 25 μM CaCl2 and liberase (70 μg/ml, Roche Molecular Biochemicals, Inc.) for 8-10 minutes. Cells were sedimented by gravity for 10-15 minutes and the pellet was resuspended in 200 μM Ca^2+-containing Tyrode's solution (containing 3 mM BDM), allowed to settle for 30 minutes at room temperature, and suspended with Tyrode's solution containing: 135 mM NaCl, 5.4 mM KCl, 1.0 mM CaCl2, 1.0 mM MgCl2, 10 mM HEPES and 10 mM dextrose (pH 7.4 adjusted with NaOH). The experiments were carried out at room temperature (22-23° C.) and were completed within 4-6 hours after myocyte isolation.
The whole cell patch-clamp technique was used for these experiments. Electrodes were prepared from borosilicate glass pipettes (1.2 mm i.d.) with a two step pulling procedure and filled with pipette solution. The pipette was connected via an Ag—AgCl wire to the head stage of an amplifier (List EPC-7, Medical Systems, Greenvale, N.Y.) controlled by a computer and Axon pClamp™ software. For voltage clamp experiments, the electrodes were filled with a solution containing: 135 mM cesium aspartate, 5 mM NaCl, 5 mM Mg2ATP, 10 mM HEPES, and 10 mM EGTA (pH 7.3 adjusted with CsOH) with or without 2 mM GDPβS. Electrode resistances were 2-4 MΩ. As soon as electrical contact was established, the superfusion medium was changed to a modified Tyrode's solution (5.4 mM KCl was omitted and 10 mM CsCl and 5 μM ouabain were added to Tyrode's solution to block K^+ currents and the Na/K pump current, respectively). In quantifying the P2 agonist-induced current, the Tyrode's solution contained the indicated concentration of each agent. In studying the effect of a P2 receptor antagonist, both agonist and antagonist were co-applied at the indicated concentrations. The voltage clamp protocol used was a ramp voltage protocol from −100 mV holding potential to +50 mV. The ramp protocol was applied to cells at 20 s intervals for 1 minute. Three current traces from −100 mV to 50 mV were averaged to construct the I-V relationship.

In the next data set the target is T1, rat 5′-ectonucleotidase (Rattus norvegicus, UniProt P21588).
T1 sequence (P21588 29-551): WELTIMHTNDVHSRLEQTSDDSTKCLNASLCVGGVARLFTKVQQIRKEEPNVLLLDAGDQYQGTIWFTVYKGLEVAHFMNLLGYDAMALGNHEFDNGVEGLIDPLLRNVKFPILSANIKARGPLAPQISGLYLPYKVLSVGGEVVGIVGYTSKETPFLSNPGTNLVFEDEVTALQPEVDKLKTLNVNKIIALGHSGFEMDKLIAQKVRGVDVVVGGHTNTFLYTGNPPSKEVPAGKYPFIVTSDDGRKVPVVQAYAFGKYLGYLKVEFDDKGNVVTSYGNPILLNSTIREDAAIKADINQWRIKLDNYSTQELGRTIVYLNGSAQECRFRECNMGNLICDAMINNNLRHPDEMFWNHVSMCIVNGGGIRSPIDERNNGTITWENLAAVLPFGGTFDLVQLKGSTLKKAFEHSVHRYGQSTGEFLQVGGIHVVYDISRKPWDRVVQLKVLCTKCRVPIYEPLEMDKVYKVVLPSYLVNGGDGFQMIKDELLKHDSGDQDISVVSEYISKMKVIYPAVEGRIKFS
The following applies: cited from earlier work.

Data set [1] deals with Binary P2X4 receptor/CSQ transgenic mice. In words: Lifespan of binary P2X4 receptor/CSQ transgenic mice given drug in drinking water. The class given is in vivo, mouse. The following applies: 2 mg/ml in drinking water. The method, then: Metoprolol, a beta-adrenergic receptor blocker, was dissolved in drinking water at a concentration of 2 mg/ml. Binary P2X4 receptor/CSQ transgenic mice were fed either regular drinking water (n=8 mice) or drinking water containing the metoprolol (n=8 mice). […] Because overexpression of the P2X4 receptor rescues calsequestrin mice in a similar manner to MRS2339, administration of a beta blocker such as metoprolol with MRS2339 or another P2X receptor agonist should synergistically increase lifespan.

In the case of `CC(C)NCC(O)c1ccc(O)c(O)c1` (stereo not drawn) [isoproterenol], the “Intracellular cyclic AMP level” value in the data set on P2X4R Tg myocytes worked out at 16.6 ± 1.53 pmol/mg.

Consider `O=C(Nc1cc(C(=O)Nc2ccc(S(=O)(=O)O)cc2S(=O)(=O)O)cc(C(=O)Nc2ccc(S(=O)(=O)O)cc2S(=O)(=O)O)c1)Nc1cc(C(=O)Nc2ccc(S(=O)(=O)O)cc2S(=O)(=O)O)cc(C(=O)Nc2ccc(S(=O)(=O)O)cc2S(=O)(=O)O)c1` [NF449, 4,4′,4″,4′″-[carbonylbis(imino-5,1,3-benzenetriyl-bis(carbonylimino))]tetrakis-1,3-benzenedisulfonic acid], for which, in the data set on cardiac P2X receptor (2-meSATP 3 μM), the “Inhibition of the 2-meSATP-induced current by P2X receptor antagonists” value (“Inhibition” below) is “very little inhibitory effect”.

`Nc1ncnc2c1ncn2C1C(O)C(O)C2(COP(=O)(O)O)CC12` (stereo not drawn) [(N) methanocarba AMP]: the “Rate of hydrolysis relative to the rate of hydrolysis of AMP” value on rat 5′-ectonucleotidase was 0.14%.

On to `CSc1nc(N)c2ncn([C@@H]3O[C@H](COP(=O)(O)OP(=O)(O)O)[C@@H](O)[C@H]3O)c2n1` [2-meSADP, 2-methylthioADP], for which the Induction of current entry in the data set on cardiac P2X receptor (3 μM, myocytes with a full response to 3 μM 2-meSATP) is given as “failed to induce any current”.

As for `COCCc1ccc(OCC(O)CNC(C)C)cc1` (stereo not drawn) [Metoprolol], the Median lifespan in data set [1] amounted to 491 days.

Turning to `CCOc1ccc(Nc2ccc(/C(=C3C=C/C(=[N+](/CC)Cc4cccc(S(=O)(=O)[O-])c4)C=C/3C)c3ccc(N(CC)Cc4cccc(S(=O)(=O)[O-])c4)cc3C)cc2)cc1.[Na+]` [Brilliant Blue G], in the data set with cardiac P2X receptor (2-meSATP 3 μM), the “Inhibition” value is on record as “very little inhibitory effect”.

For the molecule `Cc1nc(N=Nc2ccc(S(=O)(=O)O)cc2S(=O)(=O)O)c(COP(=O)(O)O)c(C=O)c1O` [PPADS], the “Inhibition” value in the data set on cardiac P2X receptor (2-meSATP 3 μM) is recorded as “partially inhibit”.

As for `CNc1nc(I)nc2c1ncn2[C@H]1C[C@H](OP(=O)(O)O)[C@]2(COP(=O)(O)O)C[C@H]12` [MRS2500, (1′R,2′S,4′S,5′S)-4-(2-iodo-6-methylamino-purin-9-yl)-1-[(phosphate)-methyl]-2-(phosphate)-bicyclo[3.1.0]hexane], the “Block of the current evoked by 2-meSATP” value in the data set with cardiac P2X receptor (MRS2500 1 μM, 2-meSATP 3 μM, WT myocytes) is listed as “could not block”. For the same molecule, the “Block of the current evoked by MRS2339” value in the data set on cardiac P2X receptor (data not shown) was “could not block”.
